Source: patent EP4385979A1 (Grünenthal GmbH, priority 2022, dated 2024)

These compounds were tested against T1, human NaV1.8 (Homo sapiens, UniProt Q9Y5Y9) (assay: Electrophysiology: voltage-clamp recordings, whole-cell patch clamp on Qube384 automated platform). Details: HEK-NaV1.8 (NM 006514.1) with b3 recombinant cell line, multi hole plates, ambient room temperature, read-out: Potency category (human NaV1.8 IC50).
T1 construct: expressed in transfected cells; host or cells: HEK
T1 sequence (Q9Y5Y9 whole entry): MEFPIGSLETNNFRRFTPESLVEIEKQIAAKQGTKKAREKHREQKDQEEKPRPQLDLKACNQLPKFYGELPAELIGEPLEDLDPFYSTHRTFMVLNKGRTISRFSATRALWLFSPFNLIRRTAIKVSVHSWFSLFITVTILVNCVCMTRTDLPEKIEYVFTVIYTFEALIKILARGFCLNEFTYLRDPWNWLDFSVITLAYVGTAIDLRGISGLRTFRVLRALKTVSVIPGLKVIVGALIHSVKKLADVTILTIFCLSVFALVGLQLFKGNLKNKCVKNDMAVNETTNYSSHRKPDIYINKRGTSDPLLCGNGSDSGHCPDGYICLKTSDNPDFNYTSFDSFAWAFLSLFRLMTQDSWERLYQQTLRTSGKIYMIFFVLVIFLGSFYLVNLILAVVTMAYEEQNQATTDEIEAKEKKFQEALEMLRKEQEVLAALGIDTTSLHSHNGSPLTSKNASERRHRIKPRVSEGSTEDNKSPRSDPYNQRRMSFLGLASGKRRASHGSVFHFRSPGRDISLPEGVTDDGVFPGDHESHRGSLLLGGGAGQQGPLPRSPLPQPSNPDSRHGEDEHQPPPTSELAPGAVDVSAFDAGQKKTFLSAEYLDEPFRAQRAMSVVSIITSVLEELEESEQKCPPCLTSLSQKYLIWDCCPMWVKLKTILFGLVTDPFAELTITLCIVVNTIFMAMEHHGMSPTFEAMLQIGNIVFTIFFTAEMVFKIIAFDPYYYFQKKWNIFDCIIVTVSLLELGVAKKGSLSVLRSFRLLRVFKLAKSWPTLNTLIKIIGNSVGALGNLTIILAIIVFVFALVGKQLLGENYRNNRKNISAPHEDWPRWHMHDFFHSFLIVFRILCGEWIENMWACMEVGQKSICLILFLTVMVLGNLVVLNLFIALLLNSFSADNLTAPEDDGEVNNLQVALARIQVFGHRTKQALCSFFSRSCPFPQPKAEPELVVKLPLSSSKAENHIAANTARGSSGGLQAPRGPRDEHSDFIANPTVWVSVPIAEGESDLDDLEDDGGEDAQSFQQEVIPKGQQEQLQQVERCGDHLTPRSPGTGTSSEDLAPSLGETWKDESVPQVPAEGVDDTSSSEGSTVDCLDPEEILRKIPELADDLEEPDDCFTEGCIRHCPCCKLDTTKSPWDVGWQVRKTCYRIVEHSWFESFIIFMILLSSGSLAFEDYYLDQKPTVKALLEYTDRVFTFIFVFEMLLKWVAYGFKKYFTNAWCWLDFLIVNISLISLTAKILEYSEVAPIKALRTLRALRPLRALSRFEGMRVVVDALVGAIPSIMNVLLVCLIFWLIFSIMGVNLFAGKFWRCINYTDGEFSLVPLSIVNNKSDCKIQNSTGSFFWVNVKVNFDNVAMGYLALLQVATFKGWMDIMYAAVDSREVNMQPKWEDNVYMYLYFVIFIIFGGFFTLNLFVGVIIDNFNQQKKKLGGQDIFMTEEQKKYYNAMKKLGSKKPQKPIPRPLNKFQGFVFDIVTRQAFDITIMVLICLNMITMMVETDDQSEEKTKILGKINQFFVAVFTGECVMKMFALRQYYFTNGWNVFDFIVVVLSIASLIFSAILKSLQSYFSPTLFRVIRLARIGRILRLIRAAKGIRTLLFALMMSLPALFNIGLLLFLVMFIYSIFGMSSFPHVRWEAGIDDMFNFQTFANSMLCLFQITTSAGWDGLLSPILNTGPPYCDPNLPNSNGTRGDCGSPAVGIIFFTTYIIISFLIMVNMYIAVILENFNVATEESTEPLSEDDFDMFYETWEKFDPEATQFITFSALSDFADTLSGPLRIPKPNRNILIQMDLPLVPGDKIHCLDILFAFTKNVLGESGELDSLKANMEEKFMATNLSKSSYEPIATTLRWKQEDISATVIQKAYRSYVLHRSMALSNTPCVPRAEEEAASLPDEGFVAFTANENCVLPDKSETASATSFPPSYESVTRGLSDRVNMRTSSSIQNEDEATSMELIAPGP
Format: cell-based
Experimental: Electrophysiology: Voltage-Clamp recordings
The following NaV1.8 recombinant cell line was used for recordings: HEK-NaV1.8 (NM 006514.1) with b3 (NM_018400.3).
Sodium currents were measured using the patch clamp technique in the whole-cell configuration using the Qube384 (Sophion A/S, Copenhagen, Denmark) automated voltage clamp platform. "Multi hole" plates were used for the cell line expressing NaV1.8 while "single hole" plates were used for the recombinant cell lines expressing the other subtypes. Appropriate filters (for minimum seal resistance and minimum current size) and series resistance compensation (for high quality sodium channel recordings) were applied. Data was collected at ambient room temperature.
The recording […] solution contained (in mM): NaCl 145 mM, KCl 4 mM, CaCl2 2 mM, MgCl2 1 mM, HEPES 10 mM, Glucose 10 mM, pH 7.4 (NaOH). The […] recording solution contained (in mM): CsF 120 mM, CsCl 20 mM, NaCl 10 mM, EGTA 10 mM, HEPES 10 mM, pH 7.2 (CsOH). Currents were recorded at 25 kHz sampling frequency and filtered at 5 kHz. Series resistance compensation was applied at 65%.
Vehicle (VEH) is the control condition where cells are exposed to 0.3 % DMSO without compound. All runs include VEH controls being exposed to the same voltage protocols to assess non-compound related phenomena such as run down and then used to isolate compound dependent effects on currents.
To check for state-dependence inhibition, the following voltage-sequence was applied every 20 seconds: From a resting membrane potential of-120 mV, the first test pulse (P1; 20 ms to -10 mV) was applied to check for channels in the Resting State followed by a brief recovery (20 ms to -120 mV), then holding the membrane voltage to V1/2 (4 seconds at voltage to obtain half the channel at Rest and half Inactivated) with a subsequent second test pulse (P2; 20 ms to -10 mV) to check for channels in the Inactivated State, followed by another brief recovery (20 ms to -120 mV) and a final third test pulse (P3; 20 ms to -10 mV) to check for recovered channels.
To check for frequency-dependent inhibition, a 10 Hz protocol and a 20 Hz protocol were applied; namely,
From a resting membrane potential of -120 mV, 40-pulses (10 ms to -10 mV) was applied at 10 Hz (at 100 ms between pulses) and then at 20 Hz (at 50 ms between pulses). Each parameter was recorded (P1, P2, P3, P40 from 10Hz and P40 from 20Hz) during a control period (lasting ~ 5 minutes) when establishing the baseline and during compound period (lasting ~ 12 minutes) when test compound (or vehicle) was applied. For each parameter, the value at the end of the compound period was normalized to the vehicle baseline; as follows Normalized Inhibition (NormCPD) = (CPD Valueend CPD period)/(VEH Valueend Control Period) [formula]
To adjust for any variance in the Na^+ current signal during the compound period (owing to cumulative inactivation independent of compound or shifts in biophysics over time), a dedicated segment of the recording wells in each 384 plate were dedicated to having only vehicle exposure. These vehicle-only recordings were used to correct for any apparent "run-up" or "run-down" in the experiment. Normalized Inhibition (NormVEH) = (VEH Valueend CPD period)/(VEH Valueend Control Period) [formula]
The adjusted inhibition was calculated as follows: % Inhibitioncorrected = 100 × (NormCPD −NormVEH)/(100−NormVEH) [formula]
Percent inhibition was determined and IC50 values were calculated using a 4 parameter logistic model within XLFit Software (IDBS, Boston MA): % Inhibitioncorrected = A + ((B−A))/((1 + (((x)/(C)))^D) [formula] where A and B are the maximal and minimum inhibition respectively, C is the IC50 concentration and D is the (Hill) slope.
Work on `NC(=O)c1cc(NC(=O)c2c(C(F)(F)F)cnn2CC2CC3(CC3)C2)ccc1F` [Example 41, N-(3-carbamoyl-4-fluorophenyl)-1-(spiro[2.3]hexan-5-ylmethyl)-4-(trifluoromethyl)-1H-pyrazole-5-carboxamide] yielded an IC50 of 100 to 1000 nM. In the case of `NC(=O)c1cc(NC(=O)c2c(C(F)(F)F)c(C3CC3)nn2CC23CC(F)(C2)C3)ccn1` [Example 15, 4-(3-cyclopropyl-1-((3-fluorobicyclo [1.1.1]pentan-1-yl)methyl)-4-(trifluoromethyl)-1H-pyrazole-5-carboxamido)picolinamide], the IC50 is reported as at most 100 nM. `NC(=O)c1cc(NC(=O)c2c(C(F)(F)F)c(C3CC3)nn2CC23CC(C(F)(F)F)(C2)C3)ccn1` [Example 9, 4-(3-cyclopropyl-4-(trifluoromethyl)-1-((3-(trifluoromethyl)bicyclo [1.1.1]pentan-1-yl)methyl)-1H-pyrazole-5-carboxamido)picolinamide] was tested, and the IC50 was at most 100 nM. `CC12COC(Cn3nc(C4CC4)c(C(F)(F)F)c3C(=O)Nc3ccnc(C(N)=O)c3)(C1)C2` [Example 16, 4-(3-cyclopropyl-1-((4-methyl-2-oxabicyclo[2.1.1]hexan-1-yl)methyl)-4-(trifluoromethyl)-1H-pyrazole-5-carboxamido)picolinamide] showed an IC50 of at most 100 nM. `Cc1c(C(C)(F)F)nn(CC2(C)CC(F)(F)CC2C)c1C(=O)Nc1ccnc(C(N)=O)c1` (single isomer, unassigned) [Example 10a, 4-(1-((4,4-difluoro-1,2-dimethylcyclopentyl)methyl)-3-(1,1-difluoroethyl)-4-methyl-1H-pyrazole-5-carboxamido)picolinamide] was tested, and the IC50 was at most 100 nM. `COC12CC(Cn3nc(C4CC4)c(C(F)(F)F)c3C(=O)Nc3ccnc(S(C)(=O)=O)c3)(C1)C2` [Example 20] gave an IC50 of 100 to 1000 nM. `COC12CC(Cn3nc(C4CC4)c(C(F)(F)F)c3C(=O)Nc3ccnc(C(N)=O)c3)(C1)C2` [Example 14, 4-(3-cyclopropyl-1-((3-methoxybicyclo[1.1.1]pentan-1-yl)methyl)-4-(trifluoromethyl)-1H-pyrazole-5-carboxamido)picolinamide] gave an IC50 of 100 to 1000 nM. With `Cc1nn(CC23CCC(C2)C3)c(C(=O)Nc2ccc(F)c(C(N)=O)c2)c1C(F)(F)F` [Example 36, 1-(bicyclo[2.1.1]hexan-1-ylmethyl)-N-(3-carbamoyl-4-fluorophenyl)-3-methyl-4-(trifluoromethyl)-1H-pyrazole-5-carboxamide] the IC50 was at most 100 nM. Work on `Cc1c(C(C)(F)F)nn(CC2(C)CC(F)(F)CC2C)c1C(=O)Nc1ccnc(S(N)(=O)=O)c1` (single isomer, unassigned) [Example 43b, 1-((4,4-difluoro-1,2-dimethylcyclopentyl)methyl)-3-(1,1-difluoroethyl)-4-methyl-N-(2-sulfamoylpyridin-4-yl)-1H-pyrazole-5-carboxamide] yielded an IC50 of at most 100 nM. Work on `CS(=O)(=O)c1cc(NC(=O)c2c(C(F)(F)F)c(C3CC3)nn2CC23CC(F)(C2)C3)ccn1` [Example 21, 3-cyclopropyl-1-((3-fluorobicyclo [1.1.1]pentan-1-yl)methyl)-N-(2-(methylsulfonyl)pyridin-4-yl)-4-(trifluoromethyl)-1H-pyrazole-5-carboxamide] yielded an IC50 of at most 100 nM. For `Cc1nn(CC23CC(CO2)C3)c(C(=O)Nc2ccc(F)c(C(N)=O)c2)c1C(F)(F)F` [Example 39, 1-((2-oxabicyclo[2.1.1]hexan-1-yl)methyl)-N-(3-carbamoyl-4-fluorophenyl)-3-methyl-4-(trifluoromethyl)-1H-pyrazole-5-carboxamide], the IC50 was 100 to 1000 nM. Work on `CC1(C)CC(Cn2nc(C3CC3)c(C(F)(F)F)c2C(=O)Nc2ccnc(C(N)=O)c2)O1` (single isomer, unassigned) [Example 17a, 4-(3-cyclopropyl-1-((4,4-dimethyloxetan-2-yl)methyl)-4-(trifluoromethyl)-1H-pyrazole-5-carboxamido)picolinamide] yielded an IC50 of 100 to 1000 nM. `NS(=O)(=O)c1cccc(NC(=O)c2c(C(F)(F)F)cnn2CC23CC(CO2)C3)c1` [Example 30, 1-((2-oxabicyclo[2.1.1]hexan-1-yl)methyl)-N-(3-sulfamoylphenyl)-4-(trifluoromethyl)-1H-pyrazole-5-carboxamide] gave an IC50 of 1000 to 10000 nM. With `Cc1c(C(C)(F)F)nn(CC2(C)CC(F)(F)CC2C)c1C(=O)Nc1ccnc(C(N)=O)c1` (single isomer, unassigned) [Example 10b, 4-(1-((4,4-difluoro-1,2-dimethylcyclopentyl)methyl)-3-(1,1-difluoroethyl)-4-methyl-1H-pyrazole-5-carboxamido)picolinamide] the IC50 was at most 100 nM. For `Cc1c(C(C)(F)F)nn(CC2(C)CC(F)(F)CC2C)c1C(=O)Nc1ccnc(S(N)(=O)=O)c1` (single isomer, unassigned) [Example 43a, 1-((4,4-difluoro-1,2-dimethylcyclopentyl)methyl)-3-(1,1-difluoroethyl)-4-methyl-N-(2-sulfamoylpyridin-4-yl)-1H-pyrazole-5-carboxamide], the IC50 was at most 100 nM. `NC(=O)c1cc(NC(=O)c2c(C(F)(F)F)cnn2CC23CC(C2)C3)ccc1F` [Example 38, 1-(bicyclo[1.1.1]pentan-1-ylmethyl)-N-(3-carbamoyl-4-fluorophenyl)-4-(trifluoromethyl)-1H-pyrazole-5-carboxamide] was tested, and the IC50 was 1000 to 10000 nM. For `Cc1c(C(C)(F)F)nn(CC2(C)CC(F)(F)CC2C)c1C(=O)Nc1ccnc(C(N)=O)c1` (single isomer, unassigned) [Example 10c, 4-(1-((4,4-difluoro-1,2-dimethylcyclopentyl)methyl)-3-(1,1-difluoroethyl)-4-methyl-1H-pyrazole-5-carboxamido)picolinamide], the IC50 was at most 100 nM. Compound `CS(=O)(=O)n1cc(NC(=O)c2c(C(F)(F)F)cnn2CC23CC(C2)C3)cn1` [Example 47, 1-(bicyclo [1.1.1]pentan-1-ylmethyl)-N-(1-(methylsulfonyl)-1H-pyrazol-4-yl)-4-(trifluoromethyl)-1H-pyrazole-5-carboxamide] has an IC50 of 1000 to 10000 nM. For `NS(=O)(=O)c1cccc(NC(=O)c2c(C(F)(F)F)cnn2CC2CC3(CC3)C2)c1` [Example 34, 1-(spiro[2.3]hexan-5-ylmethyl)-N-(3-sulfamoylphenyl)-4-(trifluoromethyl)-1H-pyrazole-5-carboxamide], the IC50 was 100 to 1000 nM. Work on `NC(=O)c1cc(NC(=O)c2c(C(F)(F)F)cnn2CC23CCC(C2)C3)ccc1F` [Example 42, 1-(bicyclo[2.1.1]hexan-1-ylmethyl)-N-(3-carbamoyl-4-fluorophenyl)-4-(trifluoromethyl)-1H-pyrazole-5-carboxamide] yielded an IC50 of at most 100 nM. Compound `Cc1c(C(C)(F)F)nn(CC2(C)CC(F)(F)CC2C)c1C(=O)Nc1ccnc(S(N)(=O)=O)c1` (single isomer, unassigned) [Example 43d, 1-((4,4-difluoro-1,2-dimethylcyclopentyl)methyl)-3-(1,1-difluoroethyl)-4-methyl-N-(2-sulfamoylpyridin-4-yl)-1H-pyrazole-5-carboxamide] has an IC50 of at most 100 nM. `CC12CC(Cn3ncc(C(F)(F)F)c3C(=O)Nc3cccc(S(N)(=O)=O)c3)(CO1)C2` [Example 31, 1-((1-methyl-2-oxabicyclo[2.1.1]hexan-4-yl)methyl)-N-(3-sulfamoylphenyl)-4-(trifluoromethyl)-1H-pyrazole-5-carboxamide] gave an IC50 of 1000 to 10000 nM.
